From paper PMC5920042, “KH176 Safeguards Mitochondrial Diseased Cells from Redox Stress-Induced Cell Death by Interacting with the Thioredoxin System/Peroxiredoxin Enzyme Machinery” (Scientific Reports, 2018)
pEC50: −log10 of the molar value.

Experiments:
TrxR1, Trx1 and Prdx2 = target: T1, TrxR1, Trx1 and Prdx2 (Homo sapiens, UniProt P32119); test: TrxR1-Trx1-Prdx2 system biochemical assay (NADPH consumption); settings: 100 µM compound, H2O2 50 µM, NADPH 75 µM
T1 construct: purchased Novus Biological NBP1-44456 (TrxR1), NBC1-18541 (Trx1), NBC1-25855 (Prdx2)
T1 sequence (P32119 1-198): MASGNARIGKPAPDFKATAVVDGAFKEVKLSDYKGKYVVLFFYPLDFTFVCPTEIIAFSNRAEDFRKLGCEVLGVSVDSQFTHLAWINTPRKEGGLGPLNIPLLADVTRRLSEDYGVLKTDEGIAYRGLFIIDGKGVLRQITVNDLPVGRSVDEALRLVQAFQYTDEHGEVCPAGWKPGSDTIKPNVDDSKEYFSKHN
Procedure: NADPH consumption measurements were performed according to the method described by Nelson et al.[50] in the presence of TrxR1, Trx1 and Prdx2 (Novus Biological NBP1-44456, NBC1-18541 and NBC1-25855, respectively). The incubations contained TrxR1 0.5 µM, Trx1 5 µM, Prdx2 0.5 µM, H2O2 50 µM, NADPH 75 µM in 25 mM potassium phosphate pH 7, 100 mM ammonium sulphate. The experiments were carried out in 96-wells black plates and in triplicate. Briefly, TrxR1, Trx1, and H2O2 were pre-incubated for 5 min at 25 °C for thermal equilibration. Upon addition of NADPH the initial NADPH auto-fluorescence was recorded for 2 min on a scanning microplate reader (PerkinElmer Enspire; Ex. 340 nm, Em. 482 nm) to insure that less than 10% of NADPH is oxidized in the absence of Prdx2. Ultimately Prdx2 was added to start the enzymatic reaction, which was monitored during 60 minutes. To test the effect of the compounds on NADPH consumption, KH176m and KH176 were added at 100 µM final concentration, after the addition of Prdx2. The NADPH fluorescence was followed in time. […] A parallel reaction without TrxR was performed to quantified non-specific NADPH oxidation and used for background correction.

CCDC101 = target: T2, CCDC101 (Homo sapiens, UniProt Q96ES7); test: Surface Plasmon Resonance binding; settings: SPR
T2 construct: purchased Abcam Ab124547
T2 sequence (Q96ES7 1-293): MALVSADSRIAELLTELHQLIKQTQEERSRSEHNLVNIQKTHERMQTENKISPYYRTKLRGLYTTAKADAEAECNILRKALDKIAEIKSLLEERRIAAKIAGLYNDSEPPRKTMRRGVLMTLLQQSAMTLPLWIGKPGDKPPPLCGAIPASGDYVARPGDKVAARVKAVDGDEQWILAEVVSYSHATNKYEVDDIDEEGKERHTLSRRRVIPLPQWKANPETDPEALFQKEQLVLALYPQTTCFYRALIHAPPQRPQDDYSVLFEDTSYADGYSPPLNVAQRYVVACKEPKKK
Procedure: Prior to protein immobilization all proteins were dialyzed against HBS-E (10 mM Hepes, 150 mM NaCl, 3 mM EDTA) buffer that was previously filtered through a 0.45 µM membrane using dialyze slide according to the manufacturer instruction. Human recombinant proteins peroxiredoxin 2 (Novus Biological NBC1-25855) and CCDC101 (Abcam Ab124547) were immobilized on CM5 (carboxymethylated dextran covalently attached to a gold surface) using the amine coupling method according to manufacturer’s recommendation (Biacore, GE Healthcare). Briefly the CM5 surface was activated with the mixture of EDC/NHS. Recombinant proteins at dilution 1 µg/ml in a corresponding buffer i.e. Peroxiredoxin 2 and CCDC101 in sodium acetate buffer 100 mM (pH 4.9). The control channel was activated with EDC/NHS. […] KH176 andKH176m were solubilized in HBSS at stock solution 1 mM. […] The sensor chip surface was regenerated with 1 mM HCl. The specific binding profiles were obtained after subtracting the response signal from the control empty channel and from blank-buffer injection. The specific binding was calculated using Biaeval 3 software (Biacore, GE Healthcare) with the postulate of 1:1 ligand/analyte interaction.

[1] = Intracellular conversion of KH176 into KH176m (LC-MS/MS); settings: 24 hours incubation with 3 µM KH176
Procedure: Cells were seeded at a density of 125 × 10^3 cells/well into 6-wells transparent plates (#657160, Greiner Bio-one) and incubated for 24 h. The culture medium was then replaced with fresh medium containing 3 µM KH176 and the cells were incubated for an additional 24 h. At the end of the treatment time, cells were washed twice with ice-cold PBS (#200120169, Thermo Fischer Scientific) before deprotenization with perchloric acid. The samples were then analyzed with standard LC-MS/MS system (Accela HPLC system, Thermo Fischer Scientific) equipped with a Zorbax Eclipse Plus C18 analytical column (Rapid Resolution HD 1.8 μm; 50 × 2.1 mm, Agilent, USA) and coupled with a UHPLC Guard Zorbax Eclipse Plus C18 pre-column (1.8 µm; 5 × 2.1 mm, Agilent). After separation the eluate was directly passed into a TSQ Vantage tandem mass spectrometer (Thermo Fischer Scientific) equipped with an electro-spray ionization source. Detection of the compounds was based on isolation of the protonated molecular ion, [M + H]+, and subsequent MS/MS fragmentations and selected reaction monitoring were performed. Proprietary compounds of Khondrion were used as internal standards.

[2] = cited from earlier work
[3] = test system: OXPHOS deficient cell lines; test: Redox Stress Survival assay, extended panel of OXPHOS deficient cell lines; type: cell-based; settings: Homo sapiens, BSO insult, read-out: EC50 values, range over the panel of cell lines
Procedure: Cells were seeded at a density of 4 × 10^3 cells/well into 96-wells black plates and incubated for 24 h. To induce redox stress, semi-logarithmic dilutions of buthionine sulphoximine (BSO, #B2515, Sigma Aldrich) up to 100 µM were added to the cells in culture medium and incubated for 24 h. Cell viability was assessed by quantification of cellular conversion of Calcein AM into fluorescent Calcein. Briefly, after having discarded the BSO containing medium, cells were washed once with M199 without phenol red and loaded with 2 µM Calcein AM (#65-0853-39, Affimetrix eBioscience) in M199 without phenol red for 25 min. At the end of the incubation period, the excess of the dye was washed with M199 without phenol red and Calcein fluorescence was measured with a scanning microplate reader (BMG FLUOstar Omega; Ex. 480 nm, Em. 520 nm). For compound screening and target identification measurements cells were treated with 200 µM BSO alone or in co-incubation with semi-logarithmic dilutions of the test compound. Additionally, where indicated, increasing doses of Auranofin (AFN, #BML-EI206-0100, Enzo) or Aurothioglucose (ATG, #A0606, Sigma Aldrich) were co-incubated with BSO and the test compound. In all cases, cell viability was assessed 24 h after the treatment.

With CC1=C(C)C(=O)C(CC[C@](C)(O)C(=O)N[C@@H]2CCCNC2)=C(C)C1=O [KH176m] the “Effect on NADPH consumption” value (TrxR1, Trx1 and Prdx2) was “significantly accelerate the consumption of NADPH”, the “Binding to CCDC101” value (CCDC101) was “no binding” and the “Ratio KH176m/KH176 in cells” value [1] was 0.48.
For Cc1c(C)c2c(c(C)c1O)CC[C@@](C)(C(=O)N[C@@H]1CCCNC1)O2.Cl [KH176, (S)-6-hydroxy-2,5,7,8-tetramethyl-N-((R)-piperidin-3-yl)chroman-2-carboxamide hydrochloride], the “Safety in Phase 1” value ([2]; healthy adult male volunteers, NCT02544217) is listed as “acceptable safety”, the “Pharmacokinetic properties in Phase 1” value ([2]; human, in vivo) is listed as “good pharmacokinetic properties” and the pEC50 [3] is listed as 6.57 to 7.46.
